Data on 33 molecules can be found in patent US9499535B2, “Kinase inhibitors” (ORIGENIS GMBH, priority 2011, dated 2016).

In assay [1] the target is T1, SYK kinase (Homo sapiens, UniProt P43405).
T1 construct: purchased Invitrogen, Carlsbad
Description: SYK assay (OMNIA Kinase Assay, Invitrogen). The class given is biochemical. The settings on record: apparent Ki calculated from the IC50 using the Cheng-Prusoff equation; 1 mM ATP, 10 μM Peptide Substrate; read-out: SYK Activities: Ki. In outline:
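Reaction velocities were measured from kinetic fluorescence reads (360/485 nm, every 30 s over 30 min) of Mg2+-chelated SOX signal. Conditions were 1 mM ATP, 10 μM Omnia Tyr 7 peptide and 0.2 mM DTT at 30° C. Sigmoidal IC50 fits were converted to apparent Ki using Cheng-Prusoff.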

Assay [2] concerns the target LRRK2 (Homo sapiens, UniProt Q5S007). Description: LRRK2 assay (LanthaScreen Eu Kinase Binding Assay). The note with it: 5 nM LRRK2, 10 nM tracer 236, RT 1 h; read-out: LRRK2 Activites: IC50. An excerpt: Binding of the tracer to the kinase is detected using a europium-labeled anti-tag antibody, which binds to the kinase of interest. […] Binding of an inhibitor to the kinase competes for binding with the tracer, resulting in a loss of FRET. The fluorescence intensity ratio is directly proportional to the amount of peptide phosphorylation.
The inhibitor concentration was plotted versus the emission ratio to determine the IC50 using XLFit 5.0 (IDBS, Guildford) to fit to a sigmoidal dose response curve with a variable slope.
On the technique in general: TR-FRET usually uses a lanthanide donor and a delayed reading to cut background.

SMILES strings stand for the structures. Some results are limits rather than exact numbers.

Chain of LRRK2 (Q5S007 970-2527 limits assumed): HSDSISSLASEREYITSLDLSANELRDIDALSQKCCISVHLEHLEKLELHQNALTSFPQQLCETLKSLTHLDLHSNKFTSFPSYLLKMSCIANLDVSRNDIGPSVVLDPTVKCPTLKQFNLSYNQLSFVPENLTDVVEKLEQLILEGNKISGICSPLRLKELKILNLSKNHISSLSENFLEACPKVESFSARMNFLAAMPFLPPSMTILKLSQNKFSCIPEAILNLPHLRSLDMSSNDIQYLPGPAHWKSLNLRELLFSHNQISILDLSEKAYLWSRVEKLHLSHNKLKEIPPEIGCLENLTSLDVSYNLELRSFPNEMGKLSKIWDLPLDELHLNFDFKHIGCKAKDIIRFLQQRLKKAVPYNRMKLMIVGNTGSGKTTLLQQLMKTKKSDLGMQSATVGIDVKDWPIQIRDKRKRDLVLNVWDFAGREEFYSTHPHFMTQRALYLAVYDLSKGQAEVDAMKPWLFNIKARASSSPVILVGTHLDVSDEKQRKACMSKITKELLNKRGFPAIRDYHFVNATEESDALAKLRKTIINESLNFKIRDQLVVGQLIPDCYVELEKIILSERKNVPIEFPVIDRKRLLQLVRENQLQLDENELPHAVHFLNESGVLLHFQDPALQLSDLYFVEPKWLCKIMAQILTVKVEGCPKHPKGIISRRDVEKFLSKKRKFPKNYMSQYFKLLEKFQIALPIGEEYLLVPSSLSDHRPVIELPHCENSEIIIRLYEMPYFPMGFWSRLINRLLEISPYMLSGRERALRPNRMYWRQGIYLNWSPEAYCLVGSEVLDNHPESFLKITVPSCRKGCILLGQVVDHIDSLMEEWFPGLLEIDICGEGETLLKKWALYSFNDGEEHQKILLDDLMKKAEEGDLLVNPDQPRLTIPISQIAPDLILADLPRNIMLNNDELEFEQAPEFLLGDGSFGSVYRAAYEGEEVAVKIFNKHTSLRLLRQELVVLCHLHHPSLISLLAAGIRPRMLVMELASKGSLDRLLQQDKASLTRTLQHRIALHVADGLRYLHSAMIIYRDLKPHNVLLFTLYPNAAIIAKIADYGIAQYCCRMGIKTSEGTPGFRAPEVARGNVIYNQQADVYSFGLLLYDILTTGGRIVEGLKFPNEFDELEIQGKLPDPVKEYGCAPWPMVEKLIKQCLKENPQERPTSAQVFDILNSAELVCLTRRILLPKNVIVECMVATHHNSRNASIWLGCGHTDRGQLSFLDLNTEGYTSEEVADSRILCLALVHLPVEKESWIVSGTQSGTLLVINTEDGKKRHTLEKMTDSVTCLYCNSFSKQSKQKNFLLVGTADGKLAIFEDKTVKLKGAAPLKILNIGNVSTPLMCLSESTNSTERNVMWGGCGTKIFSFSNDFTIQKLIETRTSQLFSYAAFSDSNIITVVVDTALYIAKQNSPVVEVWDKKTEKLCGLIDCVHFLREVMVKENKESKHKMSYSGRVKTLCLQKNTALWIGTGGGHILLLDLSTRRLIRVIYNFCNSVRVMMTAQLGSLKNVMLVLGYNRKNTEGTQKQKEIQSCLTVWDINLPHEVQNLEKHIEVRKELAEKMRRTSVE

As to `COc1ccc2nc(Nc3cccc(C)c3)c3n[nH]cc3c2c1` [Example #37, (8-Methoxy-2H-pyrazolo[3,4-c]quinolin-4-yl)-m-tolyl-amine], in assay [1], the Ki is 100 to 1000 nM. Moreover, the IC50 (in general, the concentration that gives 50% inhibition) in assay [2] lay within 100 to 1000 nM.
In the case of `COc1ccc2nc(Nc3ccc(N4CCSCC4)cc3)c3[nH]ncc3c2c1` [Example #293, 8-methoxy-N-(4-thiomorpholinophenyl)-2H-pyrazolo[3,4-c]quinolin-4-amine], the Ki in assay [1] was < 10 nM. For the same molecule, in assay [2], the half-inhibitory concentration (IC50) is 10 to 100 nM.
Take `COc1ccc2nc(Nc3cc(C4CCC4)n[nH]3)c3n[nH]cc3c2c1` [Example #85, (5-Cyclobutyl-2H-pyrazol-3-yl)-(8-methoxy-2H-pyrazolo[3,4-c]quinolin-4-yl)-amine]: in assay [1], the Ki was < 10 nM. Moreover, in assay [2], the IC50 was < 10 nM.
In the case of `Brc1ccc2nc(Nc3ccc(N4CCOCC4)cc3)c3n[nH]cc3c2c1` [Example #115, (8-Bromo-2H-pyrazolo[3,4-c]quinolin-4-yl)-(4-morpholin-4-yl-phenyl)-amine], the Ki in assay [1] is 10 to 100 nM. Moreover, in assay [2], the IC50 lay within 100 to 1000 nM.
The like results for `COc1ccc2nc(Nc3ccc(N4CCSCC4)cc3)c3[nH]ncc3c2c1` [Example #107, (8-Methoxy-3H-pyrazolo[3,4-c]quinolin-4-yl)-(4-thiomorpholin-4-yl-phenyl)-amine] were, in that order, 10 to 100 nM and 100 to 1000 nM.
For the molecule `COc1ccc2nc(Nc3ccc(N4CCOCC4)nc3)c3[nH]ncc3c2c1` [Example #103, (8-Methoxy-3H-pyrazolo[3,4-c]quinolin-4-yl)-(6-morpholin-4-yl-pyridin-3-yl)-amine], the Ki in assay [1] was 10 to 100 nM. In assay [2], the IC50 is 100 to 1000 nM.
As for `COc1cccc2c1nc(Nc1ccc3c(c1)NC(=O)CO3)c1n[nH]cc12` [Example #250, 6-((6-methoxy-2H-pyrazolo[3,4-c]quinolin-4-yl)amino)-2H-benzo[b][1,4]oxazin-3(4H)-one], the Ki in assay [1] was 10 to 100 nM. In addition, in assay [2], the IC50 was 100 to 1000 nM.
The like results for `COc1ccc(Nc2nc3ccc(OC)cc3c3c[nH]nc23)cc1` [Example #61, (4-Methoxy-phenyl)-(8-methoxy-2H-pyrazolo[3,4-c]quinolin-4-yl)-amine] were, in that order, 10 to 100 nM and 100 to 1000 nM.
For `COc1ccc2nc(Nc3cccc(O)c3)c3[nH]ncc3c2c1` [Example #113, 3-(8-Methoxy-3H-pyrazolo[3,4-c]quinolin-4-ylamino)-phenol] the same measures were 10 to 100 nM and 100 to 1000 nM.
For the molecule `COc1ccc2nc(Nc3ccc(CC(=O)O)cc3)c3n[nH]cc3c2c1` [Example #285, 2-(4-((8-methoxy-2H-pyrazolo[3,4-c]quinolin-4-yl)amino)phenyl)acetic acid], the Ki in assay [1] is 100 to 1000 nM. Besides, the half-inhibitory concentration (IC50) in assay [2] was 100 to 1000 nM.
Consider `COc1ccc2nc(Nc3cccc(N4CCOCC4)c3)c3[nH]ncc3c2c1` [Example #81, (8-Methoxy-3H-pyrazolo[3,4-c]quinolin-4-yl)-(3-morpholin-4-yl-phenyl)-amine], for which, in assay [1], the Ki is 100 to 1000 nM. Also, in assay [2], the IC50 was 100 to 1000 nM.
Consider `COc1cc2nc(Nc3ccc4c(c3)NCCO4)c3n[nH]cc3c2cc1OC` [Example #151, (3,4-Dihydro-2H-benzo[1,4]oxazin-6-yl)-(7,8-dimethoxy-2H-pyrazolo[3,4-c]quinolin-4-yl)-amine], for which the Ki in assay [1] was 10 to 100 nM. The IC50 in assay [2] lay within 100 to 1000 nM.
For `Brc1ccc2nc(Nc3cc[nH]n3)c3n[nH]cc3c2c1` [Example #119, (8-Bromo-2H-pyrazolo[3,4-c]quinolin-4-yl)-(1H-pyrazol-3-yl)-amine] the same measures were 100 to 1000 nM and 100 to 1000 nM.
Turning to `COCCOc1ccc(Nc2nc3ccc(OC)cc3c3cn[nH]c23)cc1` [Example #104, [4-(2-Methoxy-ethoxy)-phenyl]-(8-methoxy-3H-pyrazolo[3,4-c]quinolin-4-yl)-amine], in assay [1], the Ki was 10 to 100 nM. For the same molecule, the IC50 in assay [2] is 100 to 1000 nM.
Turning to `CN1CCN(C2CCN(c3ccc(Nc4nc5cccc(F)c5c5cn[nH]c45)cc3)CC2)CC1` [Example #363, 9-fluoro-N-(4-(4-(4-methylpiperazin-1-yl)piperidin-1-yl)phenyl)-3H-pyrazolo[3,4-c]quinolin-4-amine], the Ki in assay [1] is 10 to 100 nM. Also, the concentration for half-maximal inhibition (IC50) in assay [2] is 10 to 100 nM.
With `COc1ccc2nc(Nc3ccc4c(c3)n(C)c(=O)n4C)c3n[nH]cc3c2c1` [Example #189, 5-(8-Methoxy-2H-pyrazolo[3,4-c]quinolin-4-ylamino)-1,3-dimethyl-1,3-dihydro-benzoimidazol-2-one], the Ki in assay [1] was 10 to 100 nM. Further, the IC50 in assay [2] is 100 to 1000 nM.
The like results for `COc1ccc2nc(Nc3ccc4c(c3)OCC(=O)N4)c3[nH]ncc3c2c1` [Example #224, 7-(8-Methoxy-3H-pyrazolo[3,4-c]quinolin-4-ylamino)-4H-benzo[1,4]oxazin-3-one] were, in that order, 10 to 100 nM and 100 to 1000 nM.
On to `COc1ccc2nc(Nc3ccc(N4CCCC4=O)cc3)c3[nH]ncc3c2c1` [Example #106], for which the Ki in assay [1] is 100 to 1000 nM. The half-inhibitory concentration (IC50) in assay [2] lay within 100 to 1000 nM.
Turning to `COc1ccc2nc(Nc3cc(C)n[nH]3)c3[nH]ncc3c2c1` [Example #96, (8-Methoxy-3H-pyrazolo[3,4-c]quinolin-4-yl)-(5-methyl-2H-pyrazol-3-yl)-amine], in assay [1], the Ki is 10 to 100 nM. Besides, in assay [2], the IC50 was 10 to 100 nM.
In the case of `COc1ccc(Nc2nc3cccc(OC)c3c3c[nH]nc23)cc1OC` [Example #200, (3,4-Dimethoxy-phenyl)-(9-methoxy-2H-pyrazolo[3,4-c]quinolin-4-yl)-amine], the Ki in assay [1] is 100 to 1000 nM. The IC50 in assay [2] was 100 to 1000 nM.
`COc1ccc2nc(Nc3ccc4c(c3)NC(=O)CS4)c3[nH]ncc3c2c1` [Example #94, 6-(8-Methoxy-3H-pyrazolo[3,4-c]quinolin-4-ylamino)-4H-benzo[1,4]thiazin-3-one]: the Ki in assay [1] is 10 to 100 nM. Besides, the IC50 in assay [2] fell in the range of 10 to 100 nM.
Regarding `COc1cccc2c1nc(Nc1ccc3c(c1)NCCO3)c1n[nH]cc12` [Example #168, (3,4-Dihydro-2H-benzo[1,4]oxazin-6-yl)-(6-methoxy-2H-pyrazolo[3,4-c]quinolin-4-yl)-amine], the Ki in assay [1] was 10 to 100 nM. In assay [2], the IC50 was 100 to 1000 nM.
For `COc1ccc2c(c1)nc(Nc1ccc3c(c1)NCCO3)c1n[nH]cc12` [Example #173, (3,4-Dihydro-2H-benzo[1,4]oxazin-6-yl)-(7-methoxy-2H-pyrazolo[3,4-c]quinolin-4-yl)-amine] the same measures were 10 to 100 nM and 100 to 1000 nM.
For `Ic1ccc2nc(Nc3ccc(N4CCOCC4)cc3)c3[nH]ncc3c2c1` [Example #355, 8-iodo-N-(4-morpholinophenyl)-3H-pyrazolo[3,4-c]quinolin-4-amine] the same measures were 10 to 100 nM and 100 to 1000 nM.
For `CS(=O)(=O)c1cccc(Nc2nc3cccc(F)c3c3cn[nH]c23)c1` [Example #362, 9-fluoro-N-(3-(methylsulfonyl)phenyl)-3H-pyrazolo[3,4-c]quinolin-4-amine], the Ki in assay [1] is < 10 nM. The IC50 in assay [2] was 100 to 1000 nM.
For `O=C1COc2ccc(Nc3nc4ccccc4c4cn[nH]c34)cc2N1` [Example #46, 6-(3H-Pyrazolo[3,4-c]quinolin-4-ylamino)-4H-benzo[1,4]oxazin-3-one] the same measures were 10 to 100 nM and 100 to 1000 nM.
On to `COc1ccc(Nc2nc3cccc(F)c3c3cn[nH]c23)cc1OC` [Example #361, N-(3,4-dimethoxyphenyl)-9-fluoro-3H-pyrazolo[3,4-c]quinolin-4-amine], for which the Ki in assay [1] was 100 to 1000 nM. Moreover, the IC50 in assay [2] lay in the range of 100 to 1000 nM.
`CCOc1ccc(Nc2nc3ccc(OC)cc3c3cn[nH]c23)cc1OCC` [Example #114, (3,4-Diethoxy-phenyl)-(8-methoxy-3H-pyrazolo[3,4-c]quinolin-4-yl)-amine]: in assay [1], the Ki was 100 to 1000 nM. Further, in assay [2], the IC50 was 100 to 1000 nM.
On to `CC(=O)N1CCN(c2ccc(Nc3nc4ccc(I)cc4c4cn[nH]c34)cc2)CC1` [Example #357, 1-(4-(4-((8-iodo-3H-pyrazolo[3,4-c]quinolin-4-yl)amino)phenyl)piperazin-1-yl)ethan-1-one], for which the Ki in assay [1] was 10 to 100 nM. Besides, the IC50 in assay [2] was 100 to 1000 nM.
The like results for `COc1ccc2nc(Nc3ccc4c(c3)c(C)c(C)n4C)c3n[nH]cc3c2c1` [Example #138, (8-Methoxy-2H-pyrazolo[3,4-c]quinolin-4-yl)-(1,2,3-trimethyl-1H-indol-5-yl)-amine] were, in that order, 100 to 1000 nM and 100 to 1000 nM.
For `COc1ccc2nc(Nc3ccc(C(O)(C(F)(F)F)C(F)(F)F)cc3)c3n[nH]cc3c2c1` [Example #321, 1,1,1,3,3,3-hexafluoro-2-(4-((8-methoxy-2H-pyrazolo[3,4-c]quinolin-4-yl)amino)phenyl)propan-2-ol] the same measures were 100 to 1000 nM and 100 to 1000 nM.
Take `COc1ccc2nc(Nc3ccc(F)c(OC)c3)c3n[nH]cc3c2c1` [Example #124, (4-Fluoro-3-methoxy-phenyl)-(8-methoxy-2H-pyrazolo[3,4-c]quinolin-4-yl)-amine]: the Ki in assay [1] is 10 to 100 nM. For the same molecule, the IC50 in assay [2] fell in the range of 100 to 1000 nM.
For `COc1ccc2nc(Nc3ccc4c(c3)NCC(C)(C)S4)c3n[nH]cc3c2c1` [Example #88, (2,2-Dimethyl-3,4-dihydro-2H-benzo[1,4]thiazin-6-yl)-(8-methoxy-2H-pyrazolo[3,4-c]quinolin-4-yl)-amine] the same measures were 10 to 100 nM and < 10 nM.
